Measured values reported in patent US9376393B2, “Quinoline compounds which are anti-angiogenic integrin alpha5 beta1 inhibitors for use in the treatment of fibrosis or fibrosis-related diseases” (Clanotech AB, priority 2012, dated 2016).
Where “and” joins values, the source holds several entries; their conditions need not be identical. Equal entries are not always repeated. Structures can show the parent of a compound that is named as a salt.

Assays:
Assay type in all cases: in vivo
[1] = test system: TGF-β; experiment: Bleomycin-induced lung fibrosis mouse model: immunohistochemical localization of TGF-β
Protocol: (§1) Bleomycin-induced Lung Fibrosis Mouse Model
(§2) Thirty male CD-1 mice weighing 27.5±0.4 g were used in this study (obtained from Harlan Nossan, Milan, Italy), and were allowed access to food and water ad libitum. The mice were kept in laminar flow rooms at constant temperature and humidity with 3 animals in each cage. The temperature of the room was controlled between 20-26° C. and the humidity of the room was controlled between 40-70%.
(§3) Mice received a single intra-tracheal instillation of saline (0.9%), or saline containing bleomycin sulfate (BLM, 0.1 IU per mouse) in a volume of 100 μl. Mice were then sacrificed after 7 days by pentobarbitone overdose. […]
(§4) At 7 days after BLM administration, lung tissues were fixed in 10% PBS-buffered formaldehyde and 7 μm sections were prepared from paraffin-embedded tissues. […] Specific labeling was detected with a biotin-conjugated goat anti-rabbit IgG and avidin-biotin peroxidase complex (DBA). […]

[2] = test system: lung oedema; experiment: Bleomycin-induced lung fibrosis mouse model: measurement of lung oedema
Protocol: as §1, §2, §3
The wet lung weight was measured 7 days after BLM injection by careful excision of the lung from other adjacent extraneous tissues. The lung was then exposed for 48 h to 180° C. and the dry weight measured. Water content was then calculated by subtracting the dry weight from the wet weight.

[3] = Bleomycin-induced lung fibrosis mouse model: observations, body weight; settings: 30 mg/kg 30 min after intra-tracheal BLM and every 12 h thereafter
Protocol: as §1, §2, §3
At the time of routine monitoring, the animals were checked for any effects of acute lung injury and treatments on normal behavior such as mobility, food and water consumption (by looking only), body weight gain/loss (body weights were measured daily), eye/hair matting and any other abnormal effect. Death and observed clinical signs were recorded on the basis of the numbers of animals within each subset.

[4] = test system: Thiobarbituric acid-reactant substances (TBARS); experiment: Bleomycin-induced lung fibrosis mouse model: thiobarbituric acid-reactant substances in lung; settings: percentage of the level in the BLM+Vehicle group (100%); 30 mg/kg s.c. every 12 h; 7 days after BLM
Protocol: as §1, §2, §3
Thiobarbituric acid-reactant substances (TBARS) measurement, which is considered a good indicator of lipid peroxidation, was determined in the lung tissues collected at 7 days after BLM administration. […] The absorbance of the supernatant was measured spectrophotometrically at […]. Levels of TBARS are expressed as μM/100 mg of wet tissue.

[5] = test system: Myeloperoxidase (MPO); experiment: Bleomycin-induced lung fibrosis mouse model: myeloperoxidase (MPO) assay in lung; settings: percentage of the level in the BLM+Vehicle group (100%); 30 mg/kg s.c. every 12 h; 7 days after BLM
Protocol: as §1, §2, §3
Myeloperoxidase (MPO) activity was determined 7 days after BLM injection. […] The rate of change in absorbance was measured spectrophotometrically at 650 nm. MPO activity was defined as the quantity of enzyme degrading 1 μmol of peroxide per min at 37° C. and was expressed in units per gram weight of wet tissue.

[6] = test system: TNF-α; experiment: Bleomycin-induced lung fibrosis mouse model: measurement of cytokines, TNF-α; settings: percentage of the level in the BLM+Vehicle group (100%); 30 mg/kg s.c. every 12 h; 7 days after BLM
Protocol: as §1, §2
(§5) Mice received a single intra-tracheal instillation of saline (0.9%), or saline containing bleomycin sulfate (BLM, 0.1 IU per mouse) in a volume of 100 μl. Mice were then sacrificed after 7 days by pentobarbitone overdose.
(§6) Animals were randomized into three experimental groups of 10 animals in each group, and were treated with either hydroxypropyl methyl cellulose (HPMC) (0.5%)/HPbetaCyclodextrin (20%) as a 5 ml/kg s.c. injection 30 min after intra-tracheal instillation of BLM and every 12 h thereafter until completion of the study, or with the compound I-4×HCl (4-[(4-Methoxyphenyl)amino]-6-(methylcarbamoyl)quinoline-3-carboxylic acid hydrochloride) at 30 mg/kg as a s.c. injection 30 min after intra-tracheal instillation of BLM and every 12 h thereafter until completion of the study.
(§7) TNF-α and IL-1β levels were evaluated from lung tissues collected at 7 days after BLM administration. […]

[7] = test system: bleomycin-induced lung fibrosis; experiment: Bleomycin-induced lung fibrosis mouse model: overall outcome
Source text: as §1
(§8) Pulmonary fibrosis is a common response to various insults to the lung and is the end-point of a numerous and heterogenous group of disorders known as interstitial lung disease (ILD), characterized by chronic inflammation and progressive fibrosis of the pulmonary interstitium. […] instillation of the anti-tumour agent bleomycin (BLM) is the most commonly used animal model for pulmonary fibrosis.
as §2, §5, §6
The levels of various fibrotic markers were measured in the three groups (A, B and C). For each marker, the level measured in the bleomycin-injured, vehicle-treated group (BLM+Vehicle) was taken as 100%. In Table 3, the corresponding marker levels for the “sham injured” group treated with vehicle (Sham+Vehicle), and the bleomycin-injured group treated with compound I-4 (BLM+I-4×HCl), are indicated as a percentage of the level in the BLM+Vehicle group.

[8] = test system: bleomycin-induced lung fibrosis; experiment: Bleomycin-induced lung fibrosis mouse model: histological examination, scoring for lung fibrosis; set-up: key to Histological fibrosis score / Histological fibrosis score, Mean: 0 = normal lung, 8 = total fibrous obliteration of fields
Source text: as §1, §8, §2, §5, §6
Lung biopsies were taken 7 days after BLM injection. After fixation at room temperature in buffered formaldehyde solution (10% in phosphate buffered saline [PBS]), the sections were prepared and stained by haematoxylin-eosin and observed with an Axiovision Zeiss microscope (Milan, Italy).
Scoring for lung fibrosis was graded on a scale from 0 to 8 by examining randomly chosen sections, with 5 fields per sample at a magnification of ×100. Criteria for grading lung fibrosis were as follows: grade 0, normal lung; grade 1, minimal fibrous thickening of alveolar or bronchiolar walls; grade 3, moderate thickening of walls without obvious damage to lung architecture; grade 5, increased fibrosis with definite damage to lung structure and formation of fibrous bands or small fibrous masses; grade 7, severe distortion of structure and large fibrous areas; and grade 8, total fibrous obliteration of fields (Cuzzocrea S, et al. Am J Physiol Lung Cell Mol Physiol. (2007) 292:L1095-104).
All data in the text are presented as mean±s.e. mean of n observations, where n represents the number of animals studied. All statistical analysis was calculated using GraphPad Prism 5 (GraphPad Software, San Diego, Calif., USA). Data without repeated measurements were assessed by a Mann-Whitney U t-test. Data with repeated measurements were assessed by a two-way ANOVA followed by a Bonferroni post-hoc test. A P-value of less than 0.05 was considered to be statistically significant.

[9] = test system: iNOS; experiment: Bleomycin-induced lung fibrosis mouse model: immunohistochemical localization of iNOS
Protocol: as §1, §2, §3, §4

[10] = test system: Poly-ADP-ribose (PAR); experiment: Bleomycin-induced lung fibrosis mouse model: immunohistochemical localization of PAR
Protocol: as §1, §2, §3, §4

[11] = test system: Nitrotyrosine; experiment: Bleomycin-induced lung fibrosis mouse model: immunohistochemical localization of nitrotyrosine
Protocol: as §1, §2, §3, §4

[12] = test system: COX-2; experiment: Bleomycin-induced lung fibrosis mouse model: immunohistochemical localization of COX-2
Protocol: as §1, §2, §3, §4

[13] = test system: IL-1β; experiment: Bleomycin-induced lung fibrosis mouse model: measurement of cytokines, IL-1β; settings: percentage of the level in the BLM+Vehicle group (100%); 30 mg/kg s.c. every 12 h; 7 days after BLM
Protocol: as §1, §2, §5, §6, §7

[14] = percentage of the level in the BLM+Vehicle group (100%), 30 mg/kg s.c. every 12 h, 7 days after BLM
[15] = 30 mg/kg 30 min after intra-tracheal BLM and every 12 h thereafter
[16] = BLM-injured mice treated with compound, compared with sham group

## CNC(=O)c1ccc2ncc(C(=O)O)c(Nc3ccc(OC)cc3)c2c1 [I-4 × HCl, 4-[(4-Methoxyphenyl)amino]-6-(methylcarbamoyl)quinoline-3-carboxylic acid hydrochloride]
[1]; [14]
  TGF-β (immunohistochemical localization): 0.1%
[2]; [15]
  lung oedema (in words): significant attenuation
[2]; [14]
  Wet/dry weight ratio (oedema): 52%
[3]
  weight loss (in words): significant attenuation
[4]
  Lung TBARS levels: 45%
[5]
  Lung myeloperoxidase (MPO): 47%
[6]
  Lung TNF-α levels: 45%
[7]; [15]
  lung inflammation (in words): significant attenuation
[8]; [15]
  acute lung injury (in words): significant attenuation
  histological scoring of fibrosis (in words): significant attenuation
[8]; group mean of 10 mice, BLM-injured CD-1 mice, 30 mg/kg s.c. 30 min after BLM and every 12 h, 7 days after BLM, scale from 0 to 8
  Histological fibrosis score, Mean: 2.40
[8]; individual mice 1-10, BLM-injured CD-1 mice, 30 mg/kg s.c. 30 min after BLM and every 12 h, 7 days after BLM, scale from 0 to 8, hydrochloride, 30 mg/kg
  Histological fibrosis score: 2.0 (4×) and 3.0 (5×) and 1.0
[8]; [14]
  Histological score for lung acute injury: 33%
[9]; [14]
  iNOS (immunohistochemical localization): 0.1%
[10]; [14]
  Poly-ADP-ribose (PAR) (immunohistochemical localization): 0.1%
[11]; [14]
  Nitrotyrosine (immunohistochemical localization): 0.1%
[12]; [14]
  COX-2 (immunohistochemical localization): 0.1%
[13]
  Lung IL-1β levels: 50%

## CNC(=O)c1ccc2ncc(C(=O)O)c(Nc3ccc(OC)cc3)c2c1 [Compound I-4, 4-[(4-Methoxyphenyl)amino]-6-(methylcarbamoyl)quinoline-3-carboxylic acid]
[1]; [16]
  TGF-β level versus sham group (in words): reduced to levels similar to those of the sham group
[7]; all markers of Table 3, versus BLM+Vehicle
  levels of the markers induced by bleomycin (in words): statistically significantly reduced
[7]; conclusion from Tables 2 and 3
  overall effect in the bleomycin model (in words): potent anti-fibrotic and ant-inflammatory effect
[9]; [16]
  iNOS level versus sham group (in words): reduced to levels similar to those of the sham group
[10]; [16]
  poly-ADP-ribose (PAR) level versus sham group (in words): reduced to levels similar to those of the sham group
[11]; [16]
  Nitrotyrosine level versus sham group (in words): reduced to levels similar to those of the sham group
[12]; [16]
  COX-2 level versus sham group (in words): reduced to levels similar to those of the sham group
